Experiments:
[1] = test system: NarJ; settings: NMR; isolated NarG(1–15) peptide vs NarJ-bound; ref [18]; cited from earlier work
[2] = target: T1, NarG(1–15) peptide (Escherichia coli, UniProt P09152); settings: 2 µM NarJT, 50 mM Tris-HCl pH 7.5, 1 mM MgCl2, 296 K; peptide stock 50 µM
T1 sequence (P09152 whole entry, looked up): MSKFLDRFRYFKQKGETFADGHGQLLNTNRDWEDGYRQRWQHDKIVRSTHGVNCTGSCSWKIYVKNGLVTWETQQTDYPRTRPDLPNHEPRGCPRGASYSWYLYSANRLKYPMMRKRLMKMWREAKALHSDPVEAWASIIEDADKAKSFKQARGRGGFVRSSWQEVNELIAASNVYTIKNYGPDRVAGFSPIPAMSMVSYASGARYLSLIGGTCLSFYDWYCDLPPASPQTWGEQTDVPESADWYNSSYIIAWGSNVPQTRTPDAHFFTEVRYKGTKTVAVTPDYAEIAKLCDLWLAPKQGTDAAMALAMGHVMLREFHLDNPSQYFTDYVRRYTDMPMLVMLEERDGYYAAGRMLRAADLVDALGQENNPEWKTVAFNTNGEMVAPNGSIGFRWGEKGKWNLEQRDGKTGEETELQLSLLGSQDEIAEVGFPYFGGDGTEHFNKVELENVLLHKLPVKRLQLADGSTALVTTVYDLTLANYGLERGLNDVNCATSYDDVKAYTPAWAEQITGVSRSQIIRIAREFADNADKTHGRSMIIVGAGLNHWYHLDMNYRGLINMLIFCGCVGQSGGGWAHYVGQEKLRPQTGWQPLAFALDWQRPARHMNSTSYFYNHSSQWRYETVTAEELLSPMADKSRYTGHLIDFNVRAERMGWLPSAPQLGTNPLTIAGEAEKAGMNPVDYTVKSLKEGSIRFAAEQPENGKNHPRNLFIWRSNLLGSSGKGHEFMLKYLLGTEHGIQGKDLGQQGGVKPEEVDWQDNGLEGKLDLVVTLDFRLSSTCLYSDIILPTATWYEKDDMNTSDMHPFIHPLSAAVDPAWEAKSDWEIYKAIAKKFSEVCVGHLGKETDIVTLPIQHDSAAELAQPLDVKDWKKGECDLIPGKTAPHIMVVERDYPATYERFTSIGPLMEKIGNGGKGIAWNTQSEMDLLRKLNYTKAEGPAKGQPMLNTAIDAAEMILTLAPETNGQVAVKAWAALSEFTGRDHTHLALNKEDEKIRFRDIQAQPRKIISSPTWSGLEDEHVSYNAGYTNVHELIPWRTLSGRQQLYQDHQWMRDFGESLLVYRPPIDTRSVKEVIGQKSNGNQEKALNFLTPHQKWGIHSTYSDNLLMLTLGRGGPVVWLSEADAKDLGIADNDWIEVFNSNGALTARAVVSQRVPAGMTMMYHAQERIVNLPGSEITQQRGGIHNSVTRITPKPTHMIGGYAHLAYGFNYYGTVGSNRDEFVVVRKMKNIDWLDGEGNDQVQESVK
Procedure: Tryptophan fluorescence spectroscopy
Increasing concentrations of NarG(1–15) peptide at 50 µM (initial concentration) were then added and the emission fluorescence was scanned. Excitation was at 285 nm and emission was recorded from 310 to 410 nm with excitation and emission band-passes at 2 nm. […] Dissociation constants were calculated by plotting relative fluorescence peak integration against ligand concentration and curve-fitting using Origin software.
Indicated values are the average of at least three independent measurements.

## NarG(1–15) peptide: N-terminal NarG peptide, first 15 residues, chemically synthesized and purified by Synprosis (MSKFLDRFRYFKQKG; UniProt P09152 1-15, looked up, fragment)
[1]
  structure of peptide upon NarJ binding (in words): remains unchanged upon NarJ binding
[2]
  maximal decrease of the tryptophan fluorescence of NarJT upon peptide addition: 30%
